# From patent EP4417602A1, “SUBSTITUTED PYRAZOLE CARBOXAMIDES, SALTS THEREOF AND THEIR USE AS HERBICIDALLY ACTIVE SUBSTANCES” (Bayer AG, priority 2023, dated 2024)
# Legend:
# POAAN [1] = test: A. Herbicidal pre-emergence action on harmful plants (Tables A); format: in vivo, Poa annua
# How it was run: (§1)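 Values are visual percent damage relative to untreated controls, scored ca. 3 weeks after the compound was sprayed on the covering soil of sown pots (sandy loam) at rates up to 1280 g/ha, formulated as WP or EC with 0.5% additive.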
# BRSNW [2] = test: F. Post-emergence effects on crop plants (Tables F); format: in vivo, Brassica napus; conditions: application rate 80 g/ha, crop plant
# Excerpt: (§2) Seeds of mono- and dicotyledonous weed plants and crop plants were sown, in plastic or organic planting pots, in sandy loam, covered with soil and grown in a greenhouse under controlled growth conditions. 2 to 3 weeks after sowing, the test plants were sprayed in the single-leaf stage. The compounds according to the invention, formulated in form of wettable powders (WP) or as emulsifiable concentrates (EC), were sprayed onto the green plant parts as aqueous suspension or emulsion, with the addition of 0.5% of an additive, at an application rate of 6001 of water/ha (converted). The test plants were placed in the greenhouse for ca. 3 weeks under optimum growth conditions, and then the effect of the preparations was assessed visually in comparison with untreated controls (herbicidal effect in percent (%): 100% effect = plants have died off, 0% effect = as control plants). Tables F1 to F5 below show the effects of selected compounds of the general formula (I) according to table 1 on various crop plants and an application rate corresponding to 320 g/ha or below obtained by the experimental procedure mentioned above. Table […]: post-emergence activity at 320g/ha against ZEAMX in %
# VIOTR = test: C. Herbicidal pre-emergence action, weed and crop plants (Tables C); format: in vivo, Viola tricolor; conditions: application rate 320 g/ha; Table C12a
# Excerpt: (§3) Seeds of mono- and dicotyledonous weed plants and crop plants were sown, in plastic or organic planting pots, in sandy loam and covered with soil. The compounds according to the invention, formulated in the form of wettable powders (WP) or as emulsifiable concentrates (EC), were applied to the surface of the covering soil as aqueous suspension or emulsion, with the addition of 0.5% of an additive, at an application rate of 6001 of water/ha (converted). Following treatment, the pots were placed in a greenhouse and kept under optimum growth conditions for the test plants. The visual grading of the damage to the test plants was carried out after ca. 3 weeks in comparison to untreated controls (herbicidal effect in percent (%): 100% effect = plants have died off, 0% effect = as control plants). Tables C1 to C12 below show the effects of selected compounds of the general formula (I) according to table 1 on various harmful plants and an application rate corresponding to 320 g/ha or below obtained by the experimental procedure mentioned above. Table C1: pre-emergence activity at 320g/ha against KCHSC in %
# ZEAMX = test: F. Post-emergence effects on crop plants (Tables F); format: in vivo, Zea mays; conditions: application rate 80 g/ha, crop plant
# Excerpt: as §2
# GLXMA [3] = test: as above; format: in vivo, Glycine max; conditions: application rate 320 g/ha, crop plant
# Excerpt: as §2
# GLXMA [4] = test: D. Pre-emergence effects on crop plants (Tables D); format: in vivo, Glycine max; conditions: crop plant
# Excerpt: (§4) Seeds of mono- and dicotyledonous weed plants and crop plants were sown, in plastic or organic planting pots, in sandy loam and covered with soil. The compounds according to the invention, formulated in the form of wettable powders (WP) or as emulsifiable concentrates (EC), were applied to the surface of the covering soil as aqueous suspension or emulsion, with the addition of 0.5% of an additive, at an application rate of 6001 of water/ha (converted).
# (§5) Following treatment, the pots were placed in a greenhouse and kept under optimum growth conditions for the test plants. The visual grading of the damage to the test plants was carried out after ca. 3 weeks in comparison to untreated controls (herbicidal effect in percent (%): 100% effect = plants have died off, 0% effect = as control plants).
# (§6) Tables D1 to D5 below show the effects of various compounds of the general formula (I) according to Table 1 on various crop plants and an application rate corresponding to 320 g/ha or below obtained by the experimental procedure mentioned above in Biological Examples, Section C. Table D1a: pre-emergence activity at 320g/ha against ZEAMX in %
# LOLRI [5] = test: A. Herbicidal pre-emergence action on harmful plants (Tables A); format: in vivo, Lolium rigidum; conditions: visual grading after ca. 3 weeks vs untreated controls, 100% = plants have died off, 0% = as control plants
# How it was run: as §1
# ECHCG [6] = test: as above; format: in vivo, Echinochloa crus-galli; conditions: visual grading after ca. 3 weeks vs untreated controls, 100% = plants have died off, 0% = as control plants
# How it was run: as §1
# MATIN = test: as above; format: in vivo, Matricaria inodora; conditions: visual grading after ca. 3 weeks vs untreated controls, 100% = plants have died off, 0% = as control plants
# How it was run: as §1
# ORYZA [7] = test: F. Post-emergence effects on crop plants (Tables F); format: in vivo, Oryza sativa; conditions: application rate 80 g/ha, crop plant
# Excerpt: as §2
# LOLRI [8] = test: C. Herbicidal pre-emergence action, weed and crop plants (Tables C); format: in vivo, Lolium rigidum; conditions: application rate 320 g/ha; Table C7a
# Excerpt: as §3
# ECHCG [9] = test: as above; format: in vivo, Echinochloa crus-galli; conditions: application rate 320 g/ha; Table C6a
# Excerpt: as §3
# DIGSA [10] = test: as above; format: in vivo, Digitaria sanguinalis
# Excerpt: as §3
# SETVI = test: A. Herbicidal pre-emergence action on harmful plants (Tables A); format: in vivo, Setaria viridis; conditions: visual grading after ca. 3 weeks vs untreated controls, 100% = plants have died off, 0% = as control plants
# How it was run: as §1
# BRSNW [11] = test: D. Pre-emergence effects on crop plants (Tables D); format: in vivo, Brassica napus; conditions: application rate 80 g/ha, crop plant
# Excerpt: as §4, §5, §6
# TRZAS = test: F. Post-emergence effects on crop plants (Tables F); format: in vivo, Triticum aestivum; conditions: application rate 80 g/ha, crop plant
# Excerpt: as §2
# STEME = test: A. Herbicidal pre-emergence action on harmful plants (Tables A); format: in vivo, Stellaria media; conditions: visual grading after ca. 3 weeks vs untreated controls, 100% = plants have died off, 0% = as control plants
# How it was run: as §1
# ORYZA [12] = test: D. Pre-emergence effects on crop plants (Tables D); format: in vivo, Oryza sativa; conditions: crop plant; application rate 80 g/ha; Table D3b
# Excerpt: as §4, §5, §6
# VERPE = test: A. Herbicidal pre-emergence action on harmful plants (Tables A); format: in vivo, Veronica persica; conditions: application rate 1280 g/ha; Table A11
# Excerpt: (§7) Seeds of mono- and dicotyledonous weed plants were sown in plastic pots (double sowings with one species of mono- and one species of dicotyledonous weed plants per pot), in sandy loam, and covered with soil. The compounds according to the invention, formulated in the form of wettable powders (WP) or as emulsifiable concentrates (EC), were applied to the surface of the covering soil as aqueous suspension or emulsion, with the addition of 0.5% of an additive, at an application rate of 6001 of water per hectare (converted). Following treatment, the pots were placed in a greenhouse and kept under optimum growth conditions for the test plants. The visual grading of the damage to the test plants was carried out after ca. 3 weeks in comparison to untreated controls (herbicidal effect in percent (%): 100% effect = plants have died off, 0% effect = as control plants). Tables A1 to A12, below, show the effects of selected compounds of the general formula (I) according to table 1 on various harmful plants and an application rate corresponding to 1280 g/ha or below obtained by the experimental procedure mentioned above. Table A1: pre-emergence activity at 1280g/ha against ABUTH in %
# ABUTH = test: as above; format: in vivo, Abutilon theophrasti; conditions: application rate 1280 g/ha; visual grading after ca. 3 weeks vs untreated controls; 100% = plants have died off, 0% = as control plants
# Excerpt: as §7
# DIGSA [13] = test: as above; format: in vivo, Digitaria sanguinalis
# How it was run: as §1
# ALOMY = test: as above; format: in vivo, Alopecurus myosuroides
# How it was run: as §1
# AMARE = test: as above; format: in vivo, Amaranthus retroflexus
# How it was run: as §1
# ECHCG [14] = test: B. Herbicidal post-emergence action on harmful plants (Tables B); format: in vivo, Echinochloa crus-galli; conditions: application rate 1280 g/ha; Table B2a
# How it was run: (§8)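 Greenhouse weeds grown in sandy loam were sprayed post-emergence at the one-leaf stage, 2-3 weeks after sowing. Compounds were applied as WP or EC in water with 0.5% additive at 600 L/ha, at 1280 g/ha or below. Visual damage was rated after about 3 weeks versus untreated plants (0-100%).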
# POAAN [15] = test: as above; format: in vivo, Poa annua
# How it was run: as §8
# [16] = application rate 80 g/ha, Table A7c
# [17] = application rate 320 g/ha, Table A7b
# [18] = application rate 1280 g/ha, visual grading after ca. 3 weeks vs untreated controls, 100% = plants have died off, 0% = as control plants
structure (smiles),measurement,setting,value
COCc1nn(C)cc1C(=O)N1CCCC1Cc1cc(F)ccc1F (racemic) [Example I-001],pre-emergence activity against POAAN,POAAN [1]; [16],100%
same,pre-emergence activity against POAAN,POAAN [1]; [17],100%
same,pre-emergence activity against POAAN,POAAN [1]; [18],100%
same,post-emergence activity against BRSNW in %,BRSNW [2],10%
same,pre-emergence activity against VIOTR,VIOTR,80%
same,post-emergence activity against ZEAMX in %,ZEAMX,0%
same,post-emergence activity against GLXMA in %,GLXMA [3],20%
same,pre-emergence activity against GLXMA,"GLXMA [4]; application rate 80 g/ha, Table D4b",0%
same,pre-emergence activity against GLXMA,"GLXMA [4]; application rate 320 g/ha, Table D4a",20%
same,pre-emergence activity against LOLRI,LOLRI [5]; application rate 1280 g/ha,100%
same,pre-emergence activity against ECHCG,ECHCG [6]; application rate 320 g/ha,100%
same,pre-emergence activity against ECHCG,ECHCG [6]; application rate 1280 g/ha,100%
same,pre-emergence activity against MATIN,MATIN; application rate 1280 g/ha,90%
same,post-emergence activity against ORYZA in %,ORYZA [7],0%
same,pre-emergence activity against LOLRI,LOLRI [8],80%
same,pre-emergence activity against ECHCG,ECHCG [9],90%
same,pre-emergence activity against DIGSA,"DIGSA [10]; application rate 80 g/ha, Table C5b",90%
same,pre-emergence activity against DIGSA,"DIGSA [10]; application rate 320 g/ha, Table C5a",100%
same,pre-emergence activity against SETVI,SETVI; application rate 320 g/ha,90%
same,pre-emergence activity against SETVI,SETVI; application rate 1280 g/ha,100%
same,pre-emergence activity against BRSNW in %,BRSNW [11],0%
same,post-emergence activity against TRZAS in %,TRZAS,10%
same,pre-emergence activity against STEME,STEME; application rate 320 g/ha,90%
same,pre-emergence activity against STEME,STEME; application rate 1280 g/ha,90%
same,pre-emergence activity against ORYZA,ORYZA [12],20%
"COCc1nn(C)cc1C(=O)N1CCCC1Cc1cc(F)ccc1F (single isomer, unassigned) [Example I-071]",pre-emergence activity against POAAN,POAAN [1]; [16],100%
same,pre-emergence activity against POAAN,POAAN [1]; [17],100%
same,pre-emergence activity against POAAN,POAAN [1]; [18],100%
same,pre-emergence activity against VERPE,VERPE,90%
same,pre-emergence activity against ABUTH,ABUTH,90%
same,pre-emergence activity against LOLRI,LOLRI [5]; application rate 80 g/ha,90%
same,pre-emergence activity against LOLRI,LOLRI [5]; application rate 320 g/ha,100%
same,pre-emergence activity against LOLRI,LOLRI [5]; application rate 1280 g/ha,100%
same,pre-emergence activity against ECHCG,ECHCG [6]; application rate 80 g/ha,90%
same,pre-emergence activity against ECHCG,ECHCG [6]; application rate 320 g/ha,100%
same,pre-emergence activity against ECHCG,ECHCG [6]; application rate 1280 g/ha,100%
same,pre-emergence activity against DIGSA,"DIGSA [13]; application rate 80 g/ha, Table A12c",90%
same,pre-emergence activity against DIGSA,"DIGSA [13]; application rate 320 g/ha, Table A12b",100%
same,pre-emergence activity against DIGSA,"DIGSA [13]; application rate 1280 g/ha, Table A12a",100%
same,pre-emergence activity against MATIN,MATIN; application rate 320 g/ha,90%
same,pre-emergence activity against MATIN,MATIN; application rate 1280 g/ha,90%
same,pre-emergence activity against ALOMY,"ALOMY; application rate 320 g/ha, Table A9b",90%
same,pre-emergence activity against ALOMY,"ALOMY; application rate 1280 g/ha, Table A9a",90%
same,pre-emergence activity against AMARE,"AMARE; application rate 320 g/ha, Table A8b",90%
same,pre-emergence activity against AMARE,AMARE; [18],90%
same,pre-emergence activity against SETVI,SETVI; application rate 80 g/ha,90%
same,pre-emergence activity against SETVI,SETVI; application rate 320 g/ha,90%
same,pre-emergence activity against SETVI,SETVI; application rate 1280 g/ha,90%
same,post-emergence activity against ECHCG,ECHCG [14],90%
same,post-emergence activity against POAAN,"POAAN [15]; application rate 320 g/ha, Table B7b",90%
same,post-emergence activity against POAAN,"POAAN [15]; application rate 1280 g/ha, Table B7a",90%
same,pre-emergence activity against STEME,STEME; application rate 320 g/ha,90%
same,pre-emergence activity against STEME,STEME; application rate 1280 g/ha,90%
